Consider four substances from patent publication US20080193976A1 (priority 2005, published 2008).

In the experiment the test system is CD4+T-cells. Format: cell-based, human.

As for ARGRIRNGALLRVYVPRS [Peptide 75-76], the epitope classification entry is recorded as “major (or significant) epitope” and the responders is 22.62%.
As to RLVALYLAARLSWNQ [Peptide 15], the epitope classification entry was “minor epitopes” and the responders is recorded as 14.29%.
Regarding SQDLDAIWRGFYIAG [Peptide 65], the epitope classification entry is on record as “minor epitopes” and the responders stood at 14.29%.
For the substance tetanus toxoid [reference compound], the positive control response result is “robust positive control responses”.
